Assays:
[1] = test system: female Harlan Sprague-Dawley rats; experiment: Diuretic screen in rats: urinary Na^+ excretion; format: in vivo
Protocol: The diuretic activity was determined in female Harlan Sprague-Dawley rats weighing 200 to 230 grams that were fasted 15 hours overnight, and then were deprived of both food and water for an additional hour prior to dosing. […] It approximates the area under the dose response curve. The vehicle was 20% dimethylacetamide (DMA; v/v) in a pH 7.4 phosphate buffer (0.58% N2HPO4 and 0.13% NaH2PO4·H2O). Sufficient drug was suspended in 1 to 2 ml of this vehicle to deliver doses of 1.0 to 30 mg/kg in a volume of 0.5 ml (2-4 rats/dose). At least 2 vehicle control rats, and, for most tests, 2 standard diuretic treated rats were included in each experiment. Standards used as comparators included the K^+ retaining diuretic amiloride and tie K^+ wasting diuretics furosemide, hydrochlorothiazide and metolazone.
Following their IP doses, the rats' urinary bladders were gently compressed to eliminate all pretreatment urine, and two identically treated rats were placed in a stainless steel metabolism cage equipped with a graduated test tube to collect voided urine. At 2 and 5 hours post treatment, the rats' bladders were again compressed, the volume of urine excreted by the pair of rats was recorded, and aliquots of urine were retained for analysis of Na^+ and K^+ concentrations with a NOVA-13 selective ion analyzer. Following the 5 hour urine collection, the rats were returned to their stock cages, and at least 1 week of recovery was allowed between a maximum of 3 diuretic tests.
The electrolyte concentrations detected in these urine samples were manually mulliplied by their respective volumes to determine total milliequivalent (mEq) excretion of Na^+ and K^+ per pair of rats, and the results obtained with multiple racks per drug treatment were averaged. Increases in urinary Na^+ excretion of 50% or more above the pooled control tests were regarded as reflecting activity.

RMA K^+ Channel = RMA K^+ Channel (Oryctolagus cuniculus, UniProt P82451+Q8WMQ7); experiment: Inhibition of pinacidil-induced relaxation of norepinephrine-contracted isolated rabbit mesenteric artery (RMA) rings; format: cell-based; conditions: inhibitor 5 µM; pinacidil 1 µM; norepinephrine 5 µM contracted rings; mean ± sem; relaxation at 15 minutes versus control; number of rings in brackets; read-out: RMA K^+ Channel Antagonism % I at 5 µM
Protocol: The results for potassium channel blocking were obtained by using isolated rabbit mesenteric artery (RMA) procedures. Norepinephrine (5 µM) was used to contract the RMA rings twice, with an hour separating the two contractions. During this hour the tissues equilibrated in physiological salt solution at a resting tension of 1 gram. Upon the plateau of the second contraction 1 µM pinacidil was added to all tissues and the resulting relaxation time course was studied for thirty minutes. […] By studying the ability of the test compounds to inhibit this pinacidil-induced relaxation, the degree of potassium antagonism could be determined. The compounds were applied to the tissues for one hour between the two contractions and the pinacidil-induced relaxation was studied in the continuing presence of the compounds. Thus, the total time of pretreatment with the test compound was 75 minutes before the addition of pinacidil. […] The compounds were tested at 5 µM. The inhibitory effect of a compound was measured as percent inhibition of pinacidil relaxation at 15 minutes in comparison with the control.

[2] = net increase above control in urinary Na^+ excretion over 5 hours divided by total of the three drug doses, administered IP

Chain of RMA K^+ Channel (P82451 whole entry): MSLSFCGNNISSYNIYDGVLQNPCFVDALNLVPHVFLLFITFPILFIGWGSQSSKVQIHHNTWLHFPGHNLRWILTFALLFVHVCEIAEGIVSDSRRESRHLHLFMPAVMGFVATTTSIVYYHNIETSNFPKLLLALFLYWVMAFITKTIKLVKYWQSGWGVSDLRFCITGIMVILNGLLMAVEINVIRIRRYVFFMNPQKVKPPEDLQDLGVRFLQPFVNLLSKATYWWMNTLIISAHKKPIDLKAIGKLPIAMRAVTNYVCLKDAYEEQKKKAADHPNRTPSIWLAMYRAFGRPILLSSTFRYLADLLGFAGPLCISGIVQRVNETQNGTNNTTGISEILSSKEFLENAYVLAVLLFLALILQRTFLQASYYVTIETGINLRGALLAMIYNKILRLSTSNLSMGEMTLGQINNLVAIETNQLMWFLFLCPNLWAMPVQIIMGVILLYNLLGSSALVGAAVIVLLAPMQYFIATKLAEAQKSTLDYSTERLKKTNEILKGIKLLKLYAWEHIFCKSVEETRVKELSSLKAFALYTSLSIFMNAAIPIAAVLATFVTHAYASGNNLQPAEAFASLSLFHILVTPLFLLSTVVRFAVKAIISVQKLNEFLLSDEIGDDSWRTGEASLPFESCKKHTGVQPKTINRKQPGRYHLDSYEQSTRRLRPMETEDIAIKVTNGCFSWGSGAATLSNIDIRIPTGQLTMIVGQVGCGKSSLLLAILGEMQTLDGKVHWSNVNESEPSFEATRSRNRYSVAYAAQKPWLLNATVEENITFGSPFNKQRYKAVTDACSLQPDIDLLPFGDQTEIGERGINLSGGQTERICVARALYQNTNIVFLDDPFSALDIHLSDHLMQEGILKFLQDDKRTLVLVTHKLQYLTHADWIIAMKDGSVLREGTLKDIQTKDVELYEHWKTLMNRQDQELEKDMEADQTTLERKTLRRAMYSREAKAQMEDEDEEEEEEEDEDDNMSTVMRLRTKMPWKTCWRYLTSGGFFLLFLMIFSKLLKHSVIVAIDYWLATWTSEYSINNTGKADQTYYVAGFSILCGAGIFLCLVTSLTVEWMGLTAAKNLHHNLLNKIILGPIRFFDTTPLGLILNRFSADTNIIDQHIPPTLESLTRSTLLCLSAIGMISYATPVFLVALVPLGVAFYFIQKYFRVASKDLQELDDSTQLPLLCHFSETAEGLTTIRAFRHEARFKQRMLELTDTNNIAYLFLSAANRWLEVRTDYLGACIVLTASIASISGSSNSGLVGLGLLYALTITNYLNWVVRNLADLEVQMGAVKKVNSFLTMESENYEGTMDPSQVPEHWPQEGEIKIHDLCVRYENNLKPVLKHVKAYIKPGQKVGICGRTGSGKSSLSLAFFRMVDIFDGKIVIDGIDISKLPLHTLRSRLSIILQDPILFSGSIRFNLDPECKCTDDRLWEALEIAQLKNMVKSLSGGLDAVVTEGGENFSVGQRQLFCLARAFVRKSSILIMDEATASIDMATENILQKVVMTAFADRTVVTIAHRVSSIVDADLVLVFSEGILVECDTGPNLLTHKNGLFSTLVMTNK
Chain of RMA K^+ Channel (Q8WMQ7 1-424): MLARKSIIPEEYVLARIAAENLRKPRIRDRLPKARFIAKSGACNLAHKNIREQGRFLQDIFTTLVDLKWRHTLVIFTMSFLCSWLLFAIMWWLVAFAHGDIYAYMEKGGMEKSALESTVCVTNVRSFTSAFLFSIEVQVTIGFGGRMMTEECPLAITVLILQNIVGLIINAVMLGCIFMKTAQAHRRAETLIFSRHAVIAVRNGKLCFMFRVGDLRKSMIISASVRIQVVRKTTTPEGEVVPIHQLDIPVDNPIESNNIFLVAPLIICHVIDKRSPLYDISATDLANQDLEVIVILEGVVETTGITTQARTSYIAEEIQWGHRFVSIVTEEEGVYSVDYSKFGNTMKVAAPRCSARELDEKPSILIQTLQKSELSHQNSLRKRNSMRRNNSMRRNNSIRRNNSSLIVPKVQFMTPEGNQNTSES

Row | inhibition at 5 µM (RMA K^+ Channel) | SMILES | 5 h Net Natriuretic Efficacy (µEq Na^+/mg/kg) [1, 2] | 5 h Net Natriuretic Efficacy (µEq Na^+/mg/kg) ([1]; antidiuresis seen with 5 mg/kg oral dosage (footnote d))
1 | 0% | N#CN=C(NCC(c1ccccc1)c1ccccc1)Nc1cccnc1 [Control] | 0.0 µEq Na^+/mg/kg | –
2 | 81.7 ± 4.4% | C[C@@H](NC(=NC#N)Nc1cncnc1)c1ccccc1 [Example 1, (R)-N"-Cyano-N-(5-pyrimidyl)-N'-(1-phenyl)ethylguanidine] | 13.2 µEq Na^+/mg/kg | –
3 | 97% | N#CN=C(Nc1cnc(N)nc1)NC1(c2ccccc2)CCC1 [Example 2, N-(2-Amiro-5-pyrimidyl)N"-cyano-N'-(1-phenyl)cyclobutylguanidine] | 43 µEq Na^+/mg/kg | –
4 | 0% | CC(N/C(=N\C#N)Nc1ccncc1)C(C)(C)C (centres unmarked) [Pinacidil] | – | -60^d µEq Na^+/mg/kg

Source: patent publication EP0703904B1, “PYRIMIDINE CYANOGUANIDINES AS K-CHANNEL BLOCKERS” (priority 1993, dated 1994)
